Measured values taken from US20260234099A1, “Endocannabinoid ligands and related analogs” (Northeastern University, priority 2023, published 2026).
Where two headings read alike, the source gives them in different places.

What was measured:
[1] = target: CB2 receptor (Homo sapiens, UniProt P34972); assay: CB2 receptor binding affinity (Ki); set-up: CB2 receptor Ki; CB2 receptor Ki (PMSF); other: with PMSF
Method: (§1) Some disclosed compounds were tested for CB1 and CB2 receptor binding affinity (Tables 1, 2, 3, 4, 5). As used herein “binding affinity” is represented by the Ki value. The Ki value is the affinity constant and describes the affinity of the compound for the receptor. […] A detailed description of the methods used to test “binding affinity” of compounds is given in Makriyannis, et al., US 2007/0135388 the content of which is hereby incorporated by reference.

[2] = target: CB1 receptor (Rattus norvegicus, UniProt P20272); assay: CB1 receptor binding affinity (Ki); details: for binding affinity for CB1 receptor compared to endogenous AEA: vs AEA, Table 5
CB1 receptor, sequence (P20272 whole entry): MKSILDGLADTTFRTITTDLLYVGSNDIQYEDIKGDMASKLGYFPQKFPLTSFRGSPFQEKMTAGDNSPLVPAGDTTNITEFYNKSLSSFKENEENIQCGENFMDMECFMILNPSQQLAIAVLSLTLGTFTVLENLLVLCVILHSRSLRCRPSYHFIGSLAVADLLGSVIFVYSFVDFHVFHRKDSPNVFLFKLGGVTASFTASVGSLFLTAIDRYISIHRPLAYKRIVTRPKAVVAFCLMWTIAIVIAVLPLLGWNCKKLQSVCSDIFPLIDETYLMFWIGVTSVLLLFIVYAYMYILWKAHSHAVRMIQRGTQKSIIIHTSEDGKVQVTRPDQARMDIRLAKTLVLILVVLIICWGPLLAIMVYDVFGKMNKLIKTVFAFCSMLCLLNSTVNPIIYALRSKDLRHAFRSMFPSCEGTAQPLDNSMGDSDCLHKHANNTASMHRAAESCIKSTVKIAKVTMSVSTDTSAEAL
Method: as §1

[3] = target: CB1 receptor (rCB1) (Rattus norvegicus, UniProt P20272); assay: cAMP assay (inhibition of FSK stimulated cAMP), CB1; format: cell-based; details: for functional profile at CB1 (cAMP): full or partial agonist; for Emax: percentage of maximum response of standard full agonist (e.g., CP-55,940)
CB1 receptor (rCB1), sequence (P20272 whole entry): as above
Method: Further functional characterization of some of the disclosed compounds tested initially for “binding affinity” or for GTPγ-S binding was performed by using the cyclic adenosine monophosphate (cAMP) assay. […] A detailed description of the methods used to test compounds using the cAMP assay is given in Yingpeng, et al. J. Med. Chem. (2018) 61, 8639-8657 the content of which is hereby incorporated by reference. The EC50 values (potency of a test compound) of the functional assays may or may not be accompanied by the E(max) value in tables 1-5 (efficacy of the test compound). E(max)/efficacy is the maximum GTP stimulation or cAMP inhibition levels and is presented as the percentage of maximum response evoked by a standard CB1/CB2 full agonist (e.g., CP-55,940) for reference see the paper cited above.

[4] = target: CB2 receptor (hCB2) (Homo sapiens, UniProt P34972); assay: cAMP assay (inhibition of FSK stimulated cAMP), CB2; format: cell-based; details: class symbols
CB2 receptor (hCB2), sequence (P34972 whole entry): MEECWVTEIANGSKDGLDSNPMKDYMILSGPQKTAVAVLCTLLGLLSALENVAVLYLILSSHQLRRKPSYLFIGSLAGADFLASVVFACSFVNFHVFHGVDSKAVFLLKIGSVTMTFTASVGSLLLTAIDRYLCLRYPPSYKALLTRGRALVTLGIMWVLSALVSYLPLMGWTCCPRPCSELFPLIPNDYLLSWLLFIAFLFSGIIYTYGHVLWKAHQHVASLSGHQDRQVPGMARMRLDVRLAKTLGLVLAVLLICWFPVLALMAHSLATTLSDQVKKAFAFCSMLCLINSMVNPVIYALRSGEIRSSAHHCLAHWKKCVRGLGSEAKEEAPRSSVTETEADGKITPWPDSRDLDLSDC
Method: FIG. 2A is a graph providing data of the % inhibition of FSK stimulated cAMP for compound 6.1.1 for hCB2.
Further functional characterization of some of the disclosed compounds tested initially for “binding affinity” or for GTPγ-S binding was performed by using the cyclic adenosine monophosphate (cAMP) assay. Key compounds initially characterized functionally using the GTPγ-S assay were also doubly tested using the cAMP assay to unambiguously confirm their functional profiles. The functional potency of the compounds tested using the cyclase assay is also represented by the EC50 (cAMP) value and similarly the lower the EC50 (cAMP) value the higher the potency of the compound for the receptor. A detailed description of the methods used to test compounds using the cAMP assay is given in Yingpeng, et al. J. Med. Chem. (2018) 61, 8639-8657 the content of which is hereby incorporated by reference. The EC50 values (potency of a test compound) of the functional assays may or may not be accompanied by the E(max) value in tables 1-5 (efficacy of the test compound). E(max)/efficacy is the maximum GTP stimulation or cAMP inhibition levels and is presented as the percentage of maximum response evoked by a standard CB1/CB2 full agonist (e.g., CP-55,940) for reference see the paper cited above. If a test compound has an efficacy close to 100% of the standard full agonist, then the test compound is also classified as full agonist.

[5] = with PMSF, read-out: CB1 Receptor Ki with PMSF
[6] = without PMSF, read-out: CB1 receptor affinity Ki

CCCCCc1ccccc1C/C=C\C/C=C\C/C=C\CCCC(=O)N[C@H](C)CO [Compound 4.6.3, (5Z,8Z,11Z)—N—((R)-1-hydroxypropan-2-yl)-13-(2-pentylphenyl)trideca-5,8,11-trienamide]
Ki ([1]; read-out: CB2 receptor Ki): 10 to 200 nM
Ki [2, 5]: 10 to 200 nM
Ki [2, 6]: 10 to 200 nM

CCCCC/C=C\C/C=C\C/C=C\C/C=C\C1(CC(=O)OC(CO)CO)CCC1 [Compound 5.2.2d]
EC50 ([3]; class symbols): 200 to 1000 nM
EC50 [4]: > 1000 nM

C[C@H](/C=C\C/C=C\C/C=C\[C@H]1C[C@@H]1C(=O)OC(CO)CO)/C=C\CCCCC(F)(F)F [Compound 5.12.2]
EC50 ([3]; class symbols): > 1000 nM
EC50 [4]: 10 to 200 nM

C[C@H](/C=C\C/C=C\C/C=C\[C@H]1C[C@H]1C(=O)OC(CO)CO)/C=C\CCCCC(F)(F)F [Compound 5.12.3, 1,3-dihydroxypropan-2-yl (1R,2R)-2-((S,1Z,4Z,7Z,10Z)-16,16,16-trifluoro-9-methylhexadeca-1,4,7,10-tetraen-1-yl)cyclopropane-1-carboxylate]
EC50 ([3]; class symbols): 0.01 to 10 nM
EC50 [4]: 10 to 200 nM

CCCCC/C=C\C/C=C\C/C=C\C/C=C\C1CC1C(=O)OC(CO)CO (stereo not shown) [Compound 5.2.2a, 1,3-Dihydroxypropan-2-yl 2-((1Z,4Z,7Z,10Z)-hexadeca-1,4,7,10-tetraen-1-yl)cyclopropane-1-carboxylate]
EC50 ([3]; class symbols): 10 to 200 nM

CCCCC1(/C=C\C/C=C\C/C=C\C/C=C\CCCC(=O)N[C@H](C)CO)CCCC1 [Compound 4.4.3, (5Z,8Z,11Z,14Z)-15-(1-Butylcyclopentyl)-N—((R)-1-hydroxypropan-2-yl)pentadeca-5,8,11,14-tetraenamide]
Ki ([1]; read-out: CB2 receptor Ki (PMSF), with PMSF): > 1000 nM
Ki [2, 5]: 200 to 1000 nM

CCCCC/C=C\C/C=C\C/C=C\Cc1ccccc1CCCC(=O)NCCO [Compound 4.3.4, N-(2-Hydroxyethyl)-4-(2-((2Z,5Z,8Z)-tetradeca-2,5,8-trien-1-yl)phenyl)butanamide]
Ki ([1]; read-out: CB2 receptor Ki): 10 to 200 nM
binding affinity for CB1 receptor compared to endogenous AEA [2]: substantially higher binding affinities
Ki [2, 5]: 10 to 200 nM
Ki [2, 6]: 10 to 200 nM

C[C@H](/C=C\C/C=C\C/C=C\CCCC(=O)N[C@H](C)CO)/C=C\CCCCCO [Compound 4.7.2]
Ki ([1]; read-out: CB2 receptor Ki): 10 to 200 nM
Ki [2, 6]: 10 to 200 nM

CCCCC/C=C\C/C=C\C/C=C\C/C=C\C1CC1C(=O)OC(CO)CO (stereo not shown) [Compound 5.2.2b]
EC50 [4]: 10 to 200 nM

C[C@H](/C=C\C/C=C\C/C=C\C1CC1C(=O)OC(CO)CO)/C=C\CCCCCO[N+](=O)[O-] (stereo partly drawn) [Compound 5.7.3b, 1,3-dihydroxypropan-2-yl-2-((S,1Z,4Z,7Z,10Z)-9-methyl-16-(nitrooxy)hexadeca-1,4,7,10-tetraen-1-yl)cyclopropane-1-carboxylate]
EC50 ([3]; class symbols): 0.01 to 10 nM

C[C@H](/C=C\C/C=C\C/C=C\CCCC(=O)N[C@H](C)CO)/C=C\CCCCCO[N+](=O)[O-] [Compound 4.1.5b, (S,6Z,9Z,12Z,15Z)-20-(((R)-1-Hydroxypropan-2-yl)amino)-8-methyl-20-oxoicosa-6,9,12,15-tetraen-1-yl Nitrate]
Ki ([1]; read-out: CB2 receptor Ki): 10 to 200 nM
CB1 over CB2 preference ([2]; CB1 vs CB2, Tables 1 and 5): bind to and stimulate preferentially the CB1 receptors
Ki [2, 5]: 0.01 to 10 nM
Ki [2, 6]: 0.01 to 10 nM

N#CCCCCC/C=C\C/C=C\C/C=C\C/C=C\C1CC1C(=O)OC(CO)CO (stereo not shown) [Compound 5.8.3a, 1,3-Dihydroxypropan-2-yl-2-((1Z,4Z,7Z,10Z)-16-cyanohexadeca-1,4,7,10-tetraen-1-yl)cyclopropane-1-carboxylate]
EC50 ([3]; class symbols): 10 to 200 nM

C[C@H](/C=C\C/C=C\C/C=C\C1CC1C(=O)OC(CO)CO)/C=C\CCCCC(F)(F)F (single isomer, unassigned) [Compound 5.11.4]
EC50 ([3]; class symbols): 10 to 200 nM
EC50 [4]: 10 to 200 nM

C[C@H](/C=C\C/C=C\C/C=C\C1CC1C(=O)OC(CO)CO)/C=C\CCCCC(F)(F)F (single isomer, unassigned) [Compound 5.11.8]
EC50 ([3]; class symbols): 0.01 to 10 nM
EC50 [4]: 10 to 200 nM

CCCCC/C=C\[C@H](C)/C=C\C/C=C\C/C=C\CCCOC(=O)C(C)(CO)CO [Compound 6.2.2, (S,4Z,7Z,10Z,13Z)-12-Methylnonadeca-4,7,10,13-tetraen-1-yl-3-hydroxy-2(hydroxymethyl)-2-methylpropanoate]
EC50 ([3]; class symbols): 10 to 200 nM
EC50 [4]: 10 to 200 nM

CCCCC/C=C\C/C=C\C/C=C\C/C=C\C1CC(C(=O)NCCO)C1 (stereo not shown) [Compound 4.2.2c]
Ki ([1]; read-out: CB2 receptor Ki): 200 to 1000 nM
Ki [2, 5]: 200 to 1000 nM

CCCCC/C=C\C/C=C\C/C=C\C/C=C\C1CCC(C(=O)OC(CO)CO)CC1 (stereo not shown) [Compound 5.2.2f]
EC50 ([3]; class symbols): > 1000 nM
EC50 [4]: > 1000 nM

C[C@H](/C=C\C/C=C\C/C=C\[C@@H]1C[C@H]1C(=O)OC(CO)CO)/C=C\CCCCC(F)(F)F [Compound 5.12.1]
EC50 ([3]; class symbols): 10 to 200 nM
EC50 [4]: 10 to 200 nM

CCCCC/C=C\[C@@H](C)/C=C\C/C=C\C/C=C\CCCC(=O)OC(CO)CO [Compound 5.4.3d, 1,3-Dihydroxypropan-2-yl (R,5Z,8Z,11Z,14Z)-13-methylicosa-5,8,11,14-tetraenoate]
functional profile at CB1 (cAMP) [3]: full agonist
EC50 ([3]; numeric): 4.1 nM
Emax [3]: 95%
EC50 [4]: 0.01 to 10 nM

CCCCC/C=C\C/C=C\C/C=C\C/C=C\C1CC(C(=O)OC(CO)CO)C1 (stereo not shown) [Compound 5.2.2c]
EC50 ([3]; class symbols): > 1000 nM
EC50 [4]: > 1000 nM

C[C@H](/C=C\C/C=C\C/C=C\CCCC(=O)N[C@H](C)CO)/C=C\CCCCCF [Compound 4.7.4, (S,5Z,8Z,11Z,14Z)-20-Fluoro-N—((R)-1-hydroxypropan-2-yl)-13-methylicosa-5,8,11,14-tetraenamide]
Ki ([1]; read-out: CB2 receptor Ki): 10 to 200 nM
Ki [2, 6]: 0.01 to 10 nM

CCCCC/C=C\C/C=C\C/C=C\C/C=C\C1(CC(=O)NCCO)CCC1 [Compound 4.2.2d]
Ki [2, 5]: 200 to 1000 nM

CCCCC/C=C\C/C=C\C/C=C\C/C=C\C1CC[C@@H](C(=O)NCCO)C1 (stereo partly shown) [Compound 4.2.2e]
Ki ([1]; read-out: CB2 receptor Ki): 200 to 1000 nM
Ki [2, 5]: 200 to 1000 nM

C[C@H](/C=C\C/C=C\C/C=C\CCCC(=O)N[C@H](C)CO)/C=C\CCCCCOC1CCCCO1 (stereo partly shown) [Compound 4.1.3]
Ki ([1]; read-out: CB2 receptor Ki): > 1000 nM
Ki [2, 5]: > 1000 nM
Ki [2, 6]: > 1000 nM

C[C@H](/C=C\C/C=C\C/C=C\[C@@H]1C[C@@H]1C(=O)OC(CO)CO)/C=C\CCCCC(F)(F)F [Compound 5.12.4, 1,3-dihydroxypropan-2-yl (1S,2S)-2-((S,1Z,4Z,7Z,10Z)-16,16,16-trifluoro-9-methylhexadeca-1,4,7,10-tetraen-1-yl)cyclopropane-1-carboxylate]
EC50 ([3]; class symbols): 10 to 200 nM
EC50 [4]: 10 to 200 nM

CCCCC/C=C\[C@H](C)/C=C\C/C=C\Cc1ccccc1CCCC(=O)N[C@H](C)CO [Compound 4.5.3, N—((R)-1-hydroxypropan-2-yl)-4-(2-((S,2Z,5Z,8Z)-7-methyltetradeca-2,5,8-trien-1-yl)phenyl)butanamide]
binding affinity for CB1 receptor compared to endogenous AEA [2]: substantially higher binding affinities
Ki [2, 5]: 0.01 to 10 nM
Ki [2, 6]: 0.01 to 10 nM

CCCCC/C=C\[C@H](C)/C=C\C/C=C\C/C=C\CCCC(=O)OC(CO)CO [Compound 5.4.3c, 1,3-Dihydroxypropan-2-yl (S,5Z,8Z,11Z,14Z)-13-methylicosa-5,8,11,14-tetraenoate]
functional profile at CB1 (cAMP) [3]: full agonist
EC50 ([3]; numeric): 10.3 nM
Emax [3]: 99%
EC50 [4]: 0.01 to 10 nM

C[C@H](/C=C\C/C=C\C/C=C\CCCC(=O)NC(CO)CO)/C=C\CCCCCOC1CCCCO1 (stereo partly shown) [Compound 5.1.6c]
EC50 ([3]; class symbols): > 1000 nM
EC50 [4]: > 1000 nM

C[C@H](/C=C\C/C=C\C/C=C\CCCC(=O)NC(CO)CO)/C=C\CCCCCO[N+](=O)[O-] [Compound 5.1.6b]
EC50 ([3]; class symbols): 0.01 to 10 nM
EC50 [4]: 10 to 200 nM

CCCCC/C=C\[C@H](C)/C=C\C/C=C\Cc1ccccc1CCCC(=O)OC(CO)CO [Compound 5.9.3]
EC50 ([3]; class symbols): > 1000 nM
EC50 [4]: > 1000 nM

O=C(OC(CO)CO)C1CC1/C=C\C/C=C\C/C=C\C/C=C\CCCCCO[N+](=O)[O-] (stereo not shown) [Compound 5.8.3b, 1,3-Dihydroxypropan-2-yl-2-((1Z,4Z,7Z,10Z)-16-(nitrooxy)hexadeca-1,4,7,10-tetraen-1-yl)cyclopropane-1-carboxylate]
EC50 ([3]; class symbols): 10 to 200 nM
